# Reference: US10457673B2, “Heteroatom containing deoxyuridine triphosphatase inhibitors” (University of Southern California, priority 2014, dated 2019)
# What was measured:
# [1] = tested on: colorectal (HCT116 and SW620) cell line models; assay: MTS growth inhibition assay; type: cell-based; conditions: increasing concentrations of 5-FU between 0 and 100 μmol/L; both colorectal cancer cell lines evaluated
# Description: The Cell Titer AQueous MTS assay (Promega) is carried out according to the manufacturers guidelines. […] The combination effect is determined by the combination index (CI) method utilizing Calcusyn software (Biosoft, Ferguson, Mo.). Fraction affected (FA) is calculated from the percent growth inhibition: FA=[…]. CI values <1, synergism; 1-1.2, additive and >1.2, antagonism.
# MTS growth inhibition assays are performed to evaluate the effectiveness of the test compounds alone and in combination with the fluoropyrimidine thymidylate synthase (TS) inhibitor 5-fluorouracil (5-FU) at inhibiting the growth of colorectal (HCT116 and SW620) cell line models. […] Simultaneous treatment with increasing concentrations of 5-FU and a test compound at fixed concentrations of 25 μmol/L is determined.
# [2] = tested on: colorectal (HCT116), breast (MCF-7) and non-small cell lung (H1299, A549, H358 and H460) cell line models; assay: Colony forming assay; type: cell-based; conditions: increasing concentrations of FUdR between 0.5 and 2.5 μmon; all cell lines evaluated
# Description: Colony forming assay showing the ability of colon (SW620, HCT116), non-small cell lung (A549, H460, H1299 and H358) and breast (MCF7) cancer cells to survive and proliferate following transient 24 hour exposure to test compounds, FUdR and combinations are determined. Specifically, cells are seeded at densities between 50 and 100 cells/well in 24-well plates. […] After 24 hours, drug is removed, cells are rinsed and allowed to outgrow for 10-14 days. At the conclusion of the outgrowth, cells are fixed in 60% ice cold methanol and stained with 0.1% crystal violet, scanned and counted. Data is presented as percentage of untreated controls (mean±SD). Fraction affected and combination indexes are calculated according to the method of Chou and Talalay where <1 is indicative of a synergistic drug interaction.
# In colorectal cancer cells, concentrations of test compounds ranging e.g., from 3.1 μmol/L to 50 μmol/L are combined with 0.5 μmol/L FUdR in HCT116 cells and 1 μmol/L FUdR in SW620 cells.
Compound,growth inhibition [1],colonies formed [2]
"O=c1[nH]cc(F)c(=O)[nH]1 [Example 5-FU, 5-fluorouracil]",dose-dependent increases in growth inhibition,
"O=c1[nH]c(=O)n([C@H]2C[C@H](O)[C@@H](CO)O2)cc1F [FUdR, fluorodeoxyuridine]",,dose-dependent decreases in colonies formed
